Results reported in article PMC7064328 (Environmental Health Perspectives, 2020).

Experiments:
Pregnant CD-1 mice [1] = experiment: Maternal indices: dam body weight, gestational weight gain, liver and kidney weight after daily oral gavage E1.5 to E11.5 or E17.5; type: in vivo, mouse (CD-1); settings: for E0.5 weight: baseline
Method: Naïve female CD-1 mice between 7.5 and 15.5 wk of age from the NIEHS colony were bred in-house on a single night, and copulatory plug–positive females were identified on embryonic day (E) 0.5. Pregnant dams were singly housed in ventilated polypropylene cages and received nesting materials, National Institutes of Health (NIH)-31 diet (Zeigler Bros., Inc.) and reverse osmosis deionized (RODI) water ad libitum. Animals were housed in humidity- and temperature-controlled rooms with 25°C and 45–60% average humidity and standard 12-h light cycles. All animal procedures were approved by the NIEHS Animal Care and Use Committee (ASP #2017-0022).
PFOA and GenX dosing solutions were prepared in RODI water and administered to mice once daily via oral gavage. Daily doses were administered between 0700 and 0800 hours and adjusted to the BW of the mouse based on the previous day’s weight at a volume of 0.01mL/g BW. […] The dose of 1mg/kg BW/d PFOA, used in the mouse developmental toxicity study of [Lau et al. 2006], provided a lowest effect dose that was used to set the reference dose within the U.S. EPA’s drinking water lifetime health advisory level (HAL) of 70 ppt PFOA ([U.S. EPA 2016]).
This experiment was conducted over two blocks (Block 1 and Block 2) to achieve a total of n=11–13 litters per treatment group and sacrifice time point (E11.5 and E17.5). The experimental design of the second block was identical to the first block of the study, and experimental methods were similar but expanded upon to include more rigorous and detailed measurements. Copulatory plug–positive mice (E0.5) were weighed to obtain a baseline BW and placed into one of five groups. Once all mice were assigned to groups, mean BWs were calculated, and a few animals were reassigned so that mean BWs in each group were similar. This was done to avoid confounding effects of baseline BW. Treatment groups were then randomly assigned a color by using a random sequence generator. Experimenters and dosing technicians were blinded to the treatment group to which the color groups corresponded throughout the duration of the study, including at necropsy. […] Pregnant dams were dosed via oral gavage from E1.5 to E11.5 or from E1.5 to E17.5. […] The E11.5 early-gestation time point was selected because it overlaps a critical period of placental development in the mouse where the placenta undergoes vascularization with the uterine wall and chorioallantoic branching of vessels begins ([Watson and Cross 2005]). The E17.5 late-gestation time point was selected so that embryo weight changes that may be related to treatment would be evident.
(§1) On the day of necropsy, dams received daily oral gavage between 0700 and 0800 hours and were weighed and then euthanized humanely by swift decapitation, and serum was collected. In Block 1, necropsies were completed from 0800 to 1600 hours, and in Block 2, necropsies were completed from 0800 to 1200 hours. Serum from dams euthanized in Block 1 was snap frozen for internal dosimetry analyses. Serum and urine from Block 2 dams were reserved for clinical chemistry analyses. In both blocks, the uterus was removed, and total implantation sites were counted based on gross observation of an implantation nodule along the uterine horn. Viable embryos, nonviable embryos, and sites of resorption were counted based on gross observation. Embryos were considered viable if they were properly formed, were not pale in color, and were of similar size to neighboring embryos. Embryos that were poorly formed and pale in color (without heartbeat) were considered nonviable. Sites of resorption were defined as a dark red–appearing clot-like nodule apparent on gross observation.
From each uterus, first, viable embryos and their matched placentas were collected in succession within a horn and immediately snap frozen ( n=2–5 per litter ), and subsequent embryos were collected for growth measurements ( n=2–11 per litter ). […]

[2] = Litter parameters at necropsy (implantation sites, resorptions, viable and nonviable embryos); type: in vivo, mouse (CD-1); settings: female, CD-1, mouse, in vivo, oral, percent of implantation sites
Method: as §1

Pregnant CD-1 mice [3] = experiment: as above; type: in vivo, mouse (CD-1); settings: for % nonviable / % resorbed: percent of implantation sites
Method: as §1

maternal liver = experiment: Transmission electron microscopy of dam liver; type: in vivo, mouse (CD-1); settings: E17.5
From the text: Block 2 dam liver portions stored in McDowell and Trump’s fixative ([McDowell and Trump 1976]) were processed using a Leica EM TP processor. Briefly, samples were rinsed with buffer, postfixed in 1% osmium tetroxide in 0.1-M phosphate buffer, rinsed in distilled water, dehydrated, and embedded in Ply/Bed® 812 (Polysciences, Inc.) epoxide resin. Blocks were trimmed, and semithin sections ( ∼0.5μm ) were stained with 1% toluidine blue (Poly-scientific R&D Corp.) O in 1% sodium borate to ascertain areas of interest. Ultrathin sections ( […] ) were cut from areas of interest and placed on 200-mesh copper grids and stained with uranyl acetate and lead citrate, and digital images were captured using an Orius® SC1000 side mount camera (Gatan) attached to a Techani T12 transmission electron microscope (TEM) (FEI Company). In general, peroxisomes were smaller than mitochondria and round with a dark, electron-dense, granular matrix and surrounded by a single membrane. […] Samples were analyzed by R.D.K., Ph.D.

[4] = design: method as in Gannon et al. 2016; settings: mice; ref Gannon et al. 2016; cited from earlier work

N.O=C(O)C(F)(OC(F)(F)C(F)(F)C(F)(F)F)C(F)(F)F (stereo not drawn) [GenX, ammonium 2,3,3,3-tetrafluoro-2-(heptafluoropropoxy)propanoate]
Kidney weight (Pregnant CD-1 mice [1]; E11.5, 2 mg/kg/d): 0.22 ± 0.02 g
Liver weight (Pregnant CD-1 mice [1]; E11.5, 2 mg/kg/d): 3.1 ± 0.2 g
Weight at necropsy (Pregnant CD-1 mice [1]; E11.5, 2 mg/kg/d): 38.3 ± 3.2 g
Weight at necropsy (% change from E0.5) (Pregnant CD-1 mice [1]; E11.5, 2 mg/kg/d): 28.9±5.4%
Kidney weight (Pregnant CD-1 mice [1]; E11.5, 10 mg/kg/d): 0.23 ± 0.06 g
Liver weight (Pregnant CD-1 mice [1]; E11.5, 10 mg/kg/d): 4.2 ± 0.5 g
Weight at necropsy (Pregnant CD-1 mice [1]; E11.5, 10 mg/kg/d): 40.0 ± 2.5 g
Weight at necropsy (% change from E0.5) (Pregnant CD-1 mice [1]; E11.5, 10 mg/kg/d): 32.3±9.6 %
E0.5 weight (Pregnant CD-1 mice [1]; E11.5 group, 2 mg/kg/d): 29.7 ± 2.2 g
E0.5 weight (Pregnant CD-1 mice [1]; E11.5 group, 10 mg/kg/d): 30.7 ± 2.5 g
Kidney weight (Pregnant CD-1 mice [1]; E17.5, 2 mg/kg/d): 0.21 ± 0.02 g
Liver weight (Pregnant CD-1 mice [1]; E17.5, 2 mg/kg/d): 3.5 ± 0.5 g
Weight at necropsy (Pregnant CD-1 mice [1]; E17.5, 2 mg/kg/d): 55.4 ± 6.5 g
Weight at necropsy (% change from E0.5) (Pregnant CD-1 mice [1]; E17.5, 2 mg/kg/d): 97.3±15.2%
Kidney weight (Pregnant CD-1 mice [1]; E17.5, 10 mg/kg/d): 0.25 ± 0.02 g
Liver weight (Pregnant CD-1 mice [1]; E17.5, 10 mg/kg/d): 4.6 ± 0.4 g
Weight at necropsy (Pregnant CD-1 mice [1]; E17.5, 10 mg/kg/d): 56.7 ± 5.5 g
Weight at necropsy (% change from E0.5) (Pregnant CD-1 mice [1]; E17.5, 10 mg/kg/d): 98.5±15.7%
E0.5 weight (Pregnant CD-1 mice [1]; E17.5 group, 2 mg/kg/d): 28.2 ± 3.5 g
E0.5 weight (Pregnant CD-1 mice [1]; E17.5 group, 10 mg/kg/d): 28.7 ± 3.6 g
viability ([2]; 2 mg/kg/d, E11.5): 95 ± 6.2%
viability ([2]; 2 mg/kg/d, E17.5): 98.1 ± 4.6%
viability ([2]; 10 mg/kg/d, E11.5): 92.4 ± 9.3%
viability ([2]; 10 mg/kg/d, E17.5): 96.5 ± 5.3%
No. dead embryos (Pregnant CD-1 mice [3]; E11.5, 2 mg/kg/d): 0.0 ± 0.0
No. implantation sites (Pregnant CD-1 mice [3]; E11.5, 2 mg/kg/d): 14.7 ± 2.7
No. resorptions (Pregnant CD-1 mice [3]; E11.5, 2 mg/kg/d): 0.7 ± 0.8
No. viable embryos (Pregnant CD-1 mice [3]; E11.5, 2 mg/kg/d): 14.0 ± 2.9
No. dead embryos (Pregnant CD-1 mice [3]; E11.5, 10 mg/kg/d): 0.1 ± 0.3
No. implantation sites (Pregnant CD-1 mice [3]; E11.5, 10 mg/kg/d): 14.8 ± 3.7
No. resorptions (Pregnant CD-1 mice [3]; E11.5, 10 mg/kg/d): 0.9 ± 1.3
No. viable embryos (Pregnant CD-1 mice [3]; E11.5, 10 mg/kg/d): 13.8 ± 3.7
No. dead embryos (Pregnant CD-1 mice [3]; E17.5, 2 mg/kg/d): 0.1 ± 0.3
No. implantation sites (Pregnant CD-1 mice [3]; E17.5, 2 mg/kg/d): 13.8 ± 2.0
No. resorptions (Pregnant CD-1 mice [3]; E17.5, 2 mg/kg/d): 0.2 ± 0.6
No. viable embryos (Pregnant CD-1 mice [3]; E17.5, 2 mg/kg/d): 13.5 ± 2.1
No. dead embryos (Pregnant CD-1 mice [3]; E17.5, 10 mg/kg/d): 0.0 ± 0.0
No. implantation sites (Pregnant CD-1 mice [3]; E17.5, 10 mg/kg/d): 12.5 ± 3.1
No. resorptions (Pregnant CD-1 mice [3]; E17.5, 10 mg/kg/d): 0.5 ± 0.7
No. viable embryos (Pregnant CD-1 mice [3]; E17.5, 10 mg/kg/d): 12.0 ± 3.0
% nonviable (Pregnant CD-1 mice [3]; E11.5, 2 mg/kg/d): 0.0 ± 0.0%
% resorbed (Pregnant CD-1 mice [3]; E11.5, 2 mg/kg/d): 5.0 ± 6.2%
% nonviable (Pregnant CD-1 mice [3]; E11.5, 10 mg/kg/d): 2.1 ± 7.2%
% resorbed (Pregnant CD-1 mice [3]; E11.5, 10 mg/kg/d): 5.6 ± 7.7%
% nonviable (Pregnant CD-1 mice [3]; E17.5, 2 mg/kg/d): 0.7 ± 2.4%
% resorbed (Pregnant CD-1 mice [3]; E17.5, 2 mg/kg/d): 1.2 ± 4.1%
% nonviable (Pregnant CD-1 mice [3]; E17.5, 10 mg/kg/d): 0.0 ± 0.0%
% resorbed (Pregnant CD-1 mice [3]; E17.5, 10 mg/kg/d): 3.5 ± 5.3%
Liver ultrastructure (TEM) (maternal liver; 2 mg/kg/d): abnormal ultrastructure
Liver ultrastructure (TEM) (maternal liver; 10 mg/kg/d): abnormal ultrastructure
Elimination half-life [4]: ~20 h
